Data set [1] in a line: Accelerated stability of sorivudine/lidocaine cream formulas stored in 40° C./75% RH. The class given is physicochemical. An excerpt:
In the above Table 3, the six (6)-month accelerated stability assay data's for both formulations, i.e. Example 8 and Example 9 (containing BHT) were stable.

For data set [2] the following is noted: administered concurrently with 5-FU; cited from earlier work.
In another data set the test system is HSV-1. The note with it: in vitro; cited from earlier work.
[3] abbreviates: acidic environment, accelerated test.
Setting [4] is: neutral environment, 6 month accelerated test.

Structures can show the parent of a compound that is named as a salt.

Turning to `O=c1[nH]c(=O)n([C@@H]2O[C@H](CO)[C@@H](O)[C@@H]2O)cc1/C=C/Br` [sorivudine], the “Change of assay (in words)” value in data set [1] (setting [3]) was “no change”. Besides, the “Assay of sorivudine remaining” value in data set [1] (setting [4]) came out at 66%. In addition, in data set [2], the “Toxicity on concurrent administration with 5-fluorouracil (5-FU)” value is recorded as “major toxicity (myelosuppression)”.

As to `CCN(CC)CC(=O)Nc1c(C)cccc1C` [lidocaine HCl, 2-(diethylamino)-N-(2,6-dimethylphenyl)-acetamide], the figures for the “Change of assay (in words)” value in data set [1] (setting [3]) and in data set [1] (setting [4]) were “no change” and “almost no change”, respectively.

Consider `Nc1nc2c(ncn2COCCO)c(=O)[nH]1` [Acyclovir, acyclovir], for which the “Selectivity ratio for the inhibitory activity against HSV-1” value in the data set with HSV-1 was “about 2000”.

Source of the values: US10682370B2, “Topical antiviral composition containing a local anesthetic and method of making the same” (priority 2013, dated 2020).
